Source: patent US20070032556A1, “Aromatic polyamine derivative” (priority 2003, published 2007)
Read-outs that look alike come from different tables or passages of the source. Each block holds one molecule with its values, some of them ahead of it.

Assay: solubility of the monomers or polymer in the coating solvent
Assay type: physicochemical
Experimental: In 100 g of mesitylene were dissolved 2.48 g (8 mmol) of 1,3,5-adamantanetricarboxylic acid trimethyl ester prepared in Synthesis Example 1 and 6.42 g (12 mmol) of 3,3′-diaminobenzidinetetracyclohexanoimine[N,N′,N″,N′″-tetracyclohexylidene-3,4,3′,4′-biphenyltetramine] prepared in Example 5 at room temperature in a nitrogen atmosphere and thereby yielded a coating composition having a monomer concentration of 8.2 percent by weight. The coating composition was passed through a filter with a pore size of 0.1 micron and was applied to an 8-inch silicon wafer by spin coating. This was heated at 300° C. in a nitrogen atmosphere for thirty minutes, was further heated at 400° C. for thirty minutes, and thereby yielded a film. The infrared absorption spectrum of the resulting polymer film was determined to find that the target crosslinked polybenzimidazole film was formed as shown in the infrared absorption spectral data in FIG. 1. The film has a film thickness of 300 nm.
The procedure of Example 15 was repeated, except for using the same amounts as in Example 15 of 1,3,5-adamantanetricarboxylic acid and 3,3′-diaminobenzidine instead of 1,3,5-adamantanetricarboxylic acid trimethyl ester and N,N′,N″,N′″-tetracyclohexylidene-3,4,3′,4′-biphenyltetramine, respectively, to find the solubility in the solvent (mesitylene) was low. Consequently, a coating composition having a monomer concentration of 1.2 percent by weight was prepared by the procedure of Example 15, except for using 0.54 g (2 mmol) of 1,3,5-adamantanetricarboxylic acid and 0.64 g (3 mmol) of 3,3′-diaminobenzidine. By using this coating composition, a polymer film was prepared by the procedure of […], and the infrared absorption spectrum of the polymer film was determined to find that the target crosslinked polybenzimidazole film was formed. The film has a film thickness of less than 20 nm.
A coating composition having a monomer concentration of 14.7 percent by weight was prepared by dissolving 4.42 g (12 mmol) of 1,3,5,7-adamantanetetracarboxylic acid tetramethyl ester and 12.83 g (24 mmol) of 3,3′-diaminobenzidinetetracyclohexanoimine[N,N′,N″,N′″-tetracyclohexylidene-3,4,3′,4′-biphenyltetramine] prepared according to Example 5 in 100 g of methyl isobutyl ketone (MIBK) at room temperature in a nitrogen atmosphere. The coating composition was passed through a filter with a pore size of 0.1 micron and was applied to an 8-inch silicon wafer by spin coating. This was heated at 300° C. in a nitrogen atmosphere for thirty minutes and further heated at 400° C. for thirty minutes to yield a film. The infrared absorption spectrum of the resulting polymer film was determined to find that the target crosslinked polybenzimidazole film was formed. The film has a film thickness of 400 nm.
The procedure of Example 16 was repeated, except for using the same amounts as in Example 16 of 1,3,5,7-adamantanetetracarboxylic acid and 3,3′-diaminobenzidine instead of 1,3,5,7-adamantanetetracarboxylic acid tetramethyl ester and N,N′,N″,N′″-tetracyclohexylidene-3,4,3′,4′-biphenyltetramine, respectively, to find that the solubility in the solvent (methyl isobutyl ketone: MIBK) was low. Consequently, a coating composition having a monomer concentration of 1.5 percent by weight was prepared by the procedure of Example 16, except for using 0.62 g (2 mmol) of 1,3,5,7-adamantanetetracarboxylic acid and 0.86 g (4 mmol) of 3,3′-diaminobenzidine. By using this coating composition, a polymer film was prepared by the procedure of Example 16, and the infrared absorption spectrum of the film was determined to find that the target crosslinked polybenzimidazole film was formed. The film has a film thickness of less than 20 nm. […]

solubility in the solvent (mesitylene): low
SMILES: O=C(O)C12CC3CC(C(=O)O)(C1)CC(C(=O)O)(C3)C2 [1,3,5-adamantanetricarboxylic acid]

SMILES: Nc1ccc(-c2ccc(N)c(O)c2)cc1O [3,3′-dihydroxybenzidine]
solubility in the solvent (propylene glycol monomethyl ether: PGME) (same amounts as in Example 19 in 100 g PGME, room temperature, nitrogen atmosphere, together with 1,3,5-adamantanetricarboxylic acid): low

SMILES: Nc1ccc(-c2ccc(N)c(N)c2)cc1N [3,3′-diaminobenzidine]
solubility in the solvent (mesitylene) (same amounts as in Example 15 in 100 g mesitylene, room temperature, nitrogen atmosphere, acid and amine monomer dissolved together): low | solubility in the solvent (methyl isobutyl ketone: MIBK) (same amounts as in Example 16 in 100 g MIBK, room temperature, nitrogen atmosphere, acid and amine monomer dissolved together): low | solubility in the solvent (dioxane) (same amounts as in Example 17 in 100 g dioxane, room temperature, nitrogen atmosphere, together with 1,3,5-adamantanetricarboxylic acid): low

solubility in the solvent (methyl isobutyl ketone: MIBK): low
SMILES: O=C(O)C12CC3(C(=O)O)CC(C(=O)O)(C1)CC(C(=O)O)(C2)C3 [1,3,5,7-adamantanetetracarboxylic acid]
